# Assay results: PMC8113538, “Acute toxicity analysis of an inhibitor of BCL2, Disarib, in rats” (Scientific Reports, 2021)
# Like-named read-outs stand apart in the source and are kept apart here.
# Assays:
# mice = conditions: cited from earlier work
# [1] = system: interaction of BCL2 with BAX; parameters: method as in PMID 28223017; conditions: cited from earlier work
# bone marrow cells = test: Micronucleus assay for genotoxicity; format: in vivo; conditions: Wistar rats, 50 mg/kg b. wt. oral; 24, 48 and 72 h post-treatment
# Procedure: To evaluate genotoxicity caused by Disarib at the effective dose, micronucleus assay was performed[32]–[34]. Wistar rats (n = 6) were orally administered with Disarib (50 mg/kg), and bone marrow cells were collected after 24, 48, and 72 h post-treatment. Bone marrow cells were flushed out in 1X PBS containing EDTA, centrifuged, fixed (2% PFA) and stained with DAPI. Cells exposed to γ-irradiation (4 Gy) served as a positive control for the assay and were imaged using a fluorescence microscope (Nikon, Tokyo, Japan). At least 500 cells were counted from each animal for each time point, and data was plotted and represented as a bar diagram.
# [2] = In vitro stability of Disarib in plasma (HPLC); format: in vitro ADME, rats; conditions: 80% plasma diluted in PBS; 37 °C; 0, 2, 4, 6 h; HPLC peak
# Procedure: (§1) The stability of Disarib (100 μM) was investigated in phosphate-buffered saline (PBS) and in plasma. The blood was collected from rats by heart puncture, and plasma was separated for the study. After the addition of Disarib into plasma or PBS, the mixture was incubated at 37 °C in water bath[25],[26]. The samples were then collected at different time points, 0, 2, 4, and 6 h, mixed manually with acetonitrile (1:1), and analyzed on HPLC[27],[40]. The values plotted represent the mean of three independent experiments. The samples were analyzed by HPLC using the Shimadzu HPLC system. LC was carried out on the C18 analytical column. The mobile phase was the gradient of acetonitrile and water. Disarib specific peaks were detected at 232 nm. The injection volume was 20 μl, and the flow rate was 1.2 ml/min. The standard curves were constructed by plotting the peak area vs. concentration of Disarib[40].
# BCL2 = system: BCL2; parameters: method as in PMID 28223017, PMID 27693384; conditions: cited from earlier work
# [3] = Pharmacokinetics in serum of Wistar rats after oral administration (HPLC); format: in vivo, Wistar rats (Rattus norvegicus); conditions: 50 mg/kg b. wt oral
# Procedure: Wistar rats (Rattus norvegicus) were administered with 50 mg/kg Disarib orally, and blood was collected by heart-puncture method following sacrifice at different time points (15 min, 30 min, 1, 2, 4, 6, 8, 10, 12, 24, 48 and 72 h) following treatment. Blood was allowed to clot, and serum was separated by centrifugation (900×g, 10 min) and deproteinized by adding acetonitrile. Samples for standard calibration curve were prepared by spiking 100 μM Disarib in rat plasma. The supernatant was loaded onto a C18 column, and HPLC analysis was performed in acetonitrile:water gradient, as described before[23],[38] (Shimadzu, Kyoto, Japan). Disarib specific peak were acquired at 232 nm wavelength. At least two mice were sacrificed at each time point for the study. Pharmacokinetic parameters were analysed by using LabSolutions software (Shimadzu, Japan), and the values obtained were plotted with GraphPad Prism (ver5.1) software, where C is predicted concentration and t is time. Data was analysed using nonlinear regression analysis. Maximum drug plasma concentration (Cmax) and Time to reach Cmax was determind by area under the curve versus time curve. Clearance (Cl) and steady state volume of distribution (Vss) were calculated respectively by rate of drug elimination and amount of drug in the body at equilibrium condition vs steady state drug concentration in plasma.
# The samples were analyzed by HPLC using the Shimadzu HPLC system. LC was carried out on the C18 analytical column. The mobile phase was the gradient of acetonitrile and water. Disarib specific peaks were detected at 232 nm. The injection volume was 20 μl, and the flow rate was 1.2 ml/min. The standard curves were constructed by plotting the peak area vs. concentration of Disarib[40].
# Wistar rats = test: Haematological analysis after single oral dose; format: in vivo, Wistar rats (Rattus norvegicus); conditions: for platelet count vs control / Eosinophils / MCH (mean corpuscular haemoglobin) / MCHC (mean corpuscular haemoglobin concentration) / MCV (mean cell volume) / Monocytes / PCV (packed cell volume): Wistar rats
# Procedure: After 14 days of Disarib treatment, two animals from each group were sacrificed using CO2 asphyxiation, and blood was collected in EDTA-coated vials by heart puncture. Red blood cells (RBC), white blood cells (WBC), platelet counts (PLT), packed cell volume (PCV), hemoglobin (HGB), mean cell volume (MCV), mean corpuscular hemoglobin (MCH), mean corpuscular hemoglobin concentration (MCHC), lymphocytes, neutrophils, eosinophils and monocytes were analyzed as described before[28],[31],[43]. Analysis of blood samples was performed at Rohana Veterinary Diagnostic Lab, Bangalore, India.
# [4] = parameters: method as in PMID 27693384; conditions: mice, cited from earlier work
# [5] = Stability of Disarib in PBS (HPLC); format: physicochemical; conditions: 37 °C; 0, 2, 4, 6 h; HPLC peak
# Procedure: as §1
# [6] = 100 mg/kg oral, day 14, animal a
# [7] = 100 mg/kg oral, day 14, animal b
# [8] = 1000 mg/kg oral, day 14, animal a
# [9] = 1000 mg/kg oral, day 14, animal b
# [10] = 2000 mg/kg oral, day 14, animal a
# [11] = 2000 mg/kg oral, day 14, animal b
# [12] = Wistar rats, 100, 1000, 2000 mg/kg oral, day 14
smiles,measurement,setting,value
O=C1Nc2ccccc2/C1=C/c1c(-c2ccc(Br)cc2)nc2sc(Cc3ccc(Cl)cc3)nn12 [Disarib],visible toxicity,mice; highest dose 2000 mg/kg oral,did not cause any visible toxicity
same,LD50,mice; oral route,> 2000 mg/kg
same,platelet count,"mice; oral, even at the highest dose",did not affect the platelet count
same,disruption of BCL2-BAX interaction,[1],did not disrupt the interaction of BCL2 with BAX
same,genotoxicity (micronucleus formation in bone marrow cells),bone marrow cells,no DNA damage induced by Disarib
same,stability in plasma,[2],gradually decreased in plasma with increasing time
same,interaction with BCL2,BCL2,specifically interacted with BCL2
same,maximum concentration (Cmax) in serum,[3],~ 18 μg/ml
same,steady state volume of distribution (Vss),[3]; estimated,4.16 L/kg
same,clearance rate,[3]; estimated from rate of drug elimination,0.44 mL/min/kg
same,t1/2,[3]; serum,36 h
same,time to Cmax (Tmax),[3]; serum,24 h
same,platelet count vs control,"Wistar rats; 100 mg/kg oral, day 14",such a difference was not observed
same,Eosinophils,Wistar rats; [6],1.0%
same,MCH (mean corpuscular haemoglobin),Wistar rats; [6],21.9 pg
same,MCHC (mean corpuscular haemoglobin concentration),Wistar rats; [6],36.5%
same,MCV (mean cell volume),Wistar rats; [6],60.2 fL
same,Monocytes,Wistar rats; [6],3.5%
same,PCV (packed cell volume),Wistar rats; [6],40.0%
same,Eosinophils,Wistar rats; [7],1.2%
same,MCH (mean corpuscular haemoglobin),Wistar rats; [7],22.0 pg
same,MCHC (mean corpuscular haemoglobin concentration),Wistar rats; [7],33.0%
same,MCV (mean cell volume),Wistar rats; [7],66.6 fL
same,Monocytes,Wistar rats; [7],4.2%
same,PCV (packed cell volume),Wistar rats; [7],38.4%
same,platelet count vs control,"Wistar rats; 1000 mg/kg b. wt. oral, day 14",marginal variation
same,Eosinophils,Wistar rats; [8],1.0%
same,MCH (mean corpuscular haemoglobin),Wistar rats; [8],21.2 pg
same,MCHC (mean corpuscular haemoglobin concentration),Wistar rats; [8],32.3%
same,MCV (mean cell volume),Wistar rats; [8],65.7 fL
same,Monocytes,Wistar rats; [8],3.2%
same,PCV (packed cell volume),Wistar rats; [8],40.2%
same,Eosinophils,Wistar rats; [9],1.2%
same,MCH (mean corpuscular haemoglobin),Wistar rats; [9],21.9 pg
same,MCHC (mean corpuscular haemoglobin concentration),Wistar rats; [9],27.9%
same,MCV (mean cell volume),Wistar rats; [9],78.6 fL
same,Monocytes,Wistar rats; [9],8.1%
same,PCV (packed cell volume),Wistar rats; [9],36.9%
same,platelet count vs control,"Wistar rats; 2000 mg/kg oral, day 14",such a difference was not observed
same,Eosinophils,Wistar rats; [10],1.0%
same,MCH (mean corpuscular haemoglobin),Wistar rats; [10],21.2 pg
same,MCHC (mean corpuscular haemoglobin concentration),Wistar rats; [10],33.4%
same,MCV (mean cell volume),Wistar rats; [10],63.7 fL
same,Monocytes,Wistar rats; [10],2.4%
same,PCV (packed cell volume),Wistar rats; [10],41.2%
same,Eosinophils,Wistar rats; [11],1.1%
same,MCH (mean corpuscular haemoglobin),Wistar rats; [11],20.7 pg
same,MCV (mean cell volume),Wistar rats; [11],63.3 fL
same,Monocytes,Wistar rats; [11],3.0%
same,PCV (packed cell volume),Wistar rats; [11],43.3%
same,HGB content vs control,Wistar rats; [12],no significant difference
same,WBC counts vs control,Wistar rats; [12],no significant difference
same,lymphocytes count vs control,Wistar rats; [12],no significant difference
same,neutrophils count vs control,Wistar rats; [12],no significant difference
same,total number of RBC vs control,Wistar rats; [12],no significant difference
same,time at which maximum circulating concentration (Cmax) was obtained,[4]; 10 mg/kg intraperitoneal,30 min
same,clearance rate (CL),[4],6.3 mL/min/kg
same,t1/2,[4],2.3 h
same,stability in PBS,[5],stable in PBS up to 6 h
